Experimental data reported in ChEMBL document CHEMBL5120790, “Secondary Metabolites from Annulohypoxylon sp. and Structural Revision of Emericellins A and B” (2022).

Legend:
Format in all cases: functional
Bacillus subtilis = test: Antibacterial activity against Bacillus subtilis assessed as reduction in microbial growth after 24 hrs by two-fold dilution method
Candida albicans = test: Antifungal activity against Candida albicans assessed as reduction in microbial growth after 3 days by two-fold dilution method
Escherichia coli = test: Antibacterial activity against Escherichia coli assessed as reduction in microbial growth after 24 hrs by two-fold dilution method
Staphylococcus aureus = test: Antibacterial activity against Staphylococcus aureus assessed as reduction in microbial growth after 24 hrs by two-fold dilution method

Work on COc1cc2c(c(O)c1OC)CO[C@](C)(O)C2=O yielded an MIC (Bacillus subtilis) of over 256 µg/mL, an MIC (Candida albicans; 72 h, time 3 day) of 32 µg/mL and an MIC (Escherichia coli) of over 256 µg/mL. It also gave an MIC (Staphylococcus aureus) of over 256 µg/mL.
Compound NC[C@H]1O[C@H](O[C@H]2[C@H](O)[C@@H](O[C@H]3O[C@H](CO)[C@@H](O)[C@H](N)[C@H]3O)[C@H](N)C[C@@H]2N)[C@H](O)[C@@H](O)[C@@H]1O [KANAMYCIN] has an MIC (Bacillus subtilis) of 1 µg/mL, an MIC (Escherichia coli) of 1 µg/mL and an MIC (Staphylococcus aureus) of 1 µg/mL.
Work on C[C@@]12CC=C(CO)[C@@H](C1)[C@]1(C)CCC[C@]21C yielded an MIC (Bacillus subtilis) of 32 µg/mL, an MIC (Candida albicans; 72 h, time 3 day) of over 256 µg/mL and an MIC (Escherichia coli) of 64 µg/mL. It also gave an MIC (Staphylococcus aureus) of 32 µg/mL.
Compound C[C@@]12CC[C@@](O)(CO)[C@@H](C1)[C@@]1(C)CCC[C@@]21C has an MIC (Bacillus subtilis) of 64 µg/mL, an MIC (Candida albicans; 72 h, time 3 day) of over 256 µg/mL and an MIC (Escherichia coli) of 64 µg/mL. For the same compound, the MIC (Staphylococcus aureus) was 64 µg/mL.
C[C@@]12CC[C@@](O)(CO)[C@@H](C1)[C@]1(C)C[C@@H](O)C[C@]21C showed an MIC (Bacillus subtilis) of 32 µg/mL, an MIC (Candida albicans; 72 h, time 3 day) of over 256 µg/mL and an MIC (Escherichia coli) of 4 µg/mL. For the same compound, the MIC (Staphylococcus aureus) was 32 µg/mL.
In the case of C/C=C/C[C@H](CO)[C@H](O)[C@H](C)O, the MIC (Bacillus subtilis) is reported as over 256 µg/mL, the MIC (Candida albicans; 72 h, time 3 day) is reported as 64 µg/mL and the MIC (Escherichia coli) is reported as over 256 µg/mL. It also gave an MIC (Staphylococcus aureus) of over 256 µg/mL.
C[C@@]12CC[C@@](O)(CO)[C@@H](C1)[C@]1(C)CCC[C@]21C showed an MIC (Bacillus subtilis) of 32 µg/mL, an MIC (Candida albicans; 72 h, time 3 day) of over 256 µg/mL and an MIC (Escherichia coli) of 64 µg/mL. It also gave an MIC (Staphylococcus aureus) of 64 µg/mL.
Work on CC[C@H](O)[C@H](O)C[C@H](C)O yielded an MIC (Bacillus subtilis) of over 256 µg/mL, an MIC (Candida albicans; 72 h, time 3 day) of 64 µg/mL and an MIC (Escherichia coli) of over 256 µg/mL. The MIC (Staphylococcus aureus) was over 256 µg/mL.
With C[C@]12CCC[C@@]1(C)[C@@H]1C[C@@]2(C)[C@H](O)C[C@@]1(O)CO the MIC (Bacillus subtilis) was 16 µg/mL, the MIC (Candida albicans; 72 h, time 3 day) was over 256 µg/mL and the MIC (Escherichia coli) was 2 µg/mL. For the same compound, the MIC (Staphylococcus aureus) was 32 µg/mL.
NYSTATIN showed an MIC (Candida albicans; time 3.0 day) of 1 µg/mL.
C[C@H](C[C@@H](O)[C@H](O)C(C)(C)O)[C@H]1CC[C@@](C)(O)[C@@H](O)C1 was tested, and the MIC (Bacillus subtilis) was 64 µg/mL, the MIC (Candida albicans; 72 h, time 3 day) was over 256 µg/mL and the MIC (Escherichia coli) was 64 µg/mL. The MIC (Staphylococcus aureus) was 64 µg/mL.
